# Data from US20080191170A1, “Use of Ionic Liquids” (CAMBRIDGE UNIVERSITY TECHNICAL SERVICES LIMITED, priority 2004, published 2008).
# Where two headings read alike, the source gives them in different places.
# Legend:
# [1] = target: T1, morphine dehydrogenase (MDH) (Pseudomonas putida, UniProt Q02198); conditions: ionic liquid as medium, cited from earlier work; for Net % codeinone: <100 ppm water, glucose dehydrogenase recycling NADP+
# T1 sequence (Q02198 1-296): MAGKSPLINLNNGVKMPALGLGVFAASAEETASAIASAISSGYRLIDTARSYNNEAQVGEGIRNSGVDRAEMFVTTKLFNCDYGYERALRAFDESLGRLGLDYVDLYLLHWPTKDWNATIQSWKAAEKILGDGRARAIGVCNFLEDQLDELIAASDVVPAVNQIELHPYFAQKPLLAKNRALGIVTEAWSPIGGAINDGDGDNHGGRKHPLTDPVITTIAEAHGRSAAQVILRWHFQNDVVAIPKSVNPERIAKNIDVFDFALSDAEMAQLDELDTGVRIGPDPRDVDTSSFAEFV
# [2] = Solubility of penicillin G (sodium salt) in ionic liquid solvents; type: physicochemical
# [3] = Water miscibility of silyl-protected ionic liquid; type: physicochemical
# Experimental: Dry 3-HOPMIm PF6(2.86 g, 10 mmol) was placed in a round-bottomed flask and dissolved in 50 ml dry THF. Dry trimethylsilyl (TMS) chloride (1.05 g) was added in dry THF solution, dropwise over a period of 30 minutes, with external cooling and stirring, under an atmosphere of dry argon. Stirring was continued for 12 hours.
# At the completion of the reaction (TLC), the solvent was removed in vacuo to yield the silyl-protected ionic liquid (3.52 g, 98%), 3-TMSOPMIm PF6.
# [4] = Refractive index of ionic liquid (Mettler Toledo Refracto 30PX, sodium D-line 589.3 nm); type: physicochemical; conditions: sodium D-line at 589.3 nm
# Experimental: (§1) Refractive index was measured using a Mettler Toledo Refracto™ 30PX, using a single wavelength light source (the sodium D-line at 589.3 nm). Viscosity was measured using an AND Vibro™ SV10 instrument, which measures viscosity by controlling the amplitude of vibrations of sensor plates submerged in a liquid, detecting changes in the electric current needed to drive the plates.
# [5] = Viscosity of ionic liquid (AND Vibro SV10); type: physicochemical; conditions: at 25° C.
# Experimental: as §1
Structure (SMILES),Net % codeinone ([1]; 1 hour),Net % codeinone ([1]; 4 hours) [%],Net % codeinone ([1]; 24 hours),MDH activity in the ionic liquid (in words) [1],further results
"C[n+]1ccn(CCCO)c1.[Cl-] [HOPMIm Cl, hydroxypropyl methyl imidazolium chloride]",0%,0,Small,very little activity,
CC1(C)S[C@@H]2[C@H](NC(=O)Cc3ccccc3)C(=O)N2[C@H]1C(=O)[O-].[Na+] [penicillin G (sodium salt)],,,,,solubility ([2]; in dimethyl ethanolammonium crotonate/ethanol (25/75 v/v)): ~50 mg/mL; solubility ([2]; in dimethyl ethanolammonium trifluoroacetate/ethanol (25/75 v/v)): 76 mg/mL; solubility ([2]; in pure dimethyl ethanolammonium crotonate): ~20 mg/mL; solubility ([2]; in pure dimethyl ethanolammonium trifluoroacetate): > 275 mg/mL
Cn1cc[n+](CCCO[Si](C)(C)C)c1.F[P-](F)(F)(F)(F)F [3-TMSOPMIm PF6],,,,,miscibility with water [3]: effectively immiscible with water
CCCCn1cc[n+](C)c1.O=C([O-])CO [BMIm glycolate],0%,5,12%,greatly improved,
CCCCN(CCO)CCO.O=C(O)C(F)(F)F [n-butyl diethanolammonium trifluoroacetate],,,,,Refractive index [4]: 1.434; Viscosity [5]: 440 mPa · s
C[n+]1ccn(CCCO)c1.F[P-](F)(F)(F)(F)F [HOPMIm PF6],2%,9,20%,high level,
C[n+]1ccn(CCCO)c1.O=C([O-])CO [HOPMIm glycolate],small,5,16%,moderate level of activity,
CCCCn1cc[n+](C)c1.F[P-](F)(F)(F)(F)F [BMIm PF6],0%,0,2%,extremely low,
"CC(=O)O.CCCCN(CCO)CCO [Pure n-butyl diethanolammonium acetate, n-butyl diethanolammonium acetate]",,,,,Refractive index [4]: 1.464; Viscosity [5]: ~285 mPa · s
